Laboratory results: ChEMBL document CHEMBL4342490, “Discovery of Potent and Selective MTH1 Inhibitors for Oncology: Enabling Rapid Target (In)Validation” (ACS Med Chem Lett, 2020)
≈ marks a conversion by molar mass, not a printed value. Blank lines part the entries; values can stand above or below the compound they belong to. Calls of active or inactive are those of the source. No cut-off for these calls is given here.

Columns and labels:
SW480 = test: Cytotoxicity against human SW480 cells assessed as reduction in cell viability incubated for 72 hrs by celltiter glo assay; settings: SW480, 72 h
U2OS [1] = test: Cytotoxicity against human U2OS cells assessed as reduction in cell viability incubated for 72 hrs by celltiter glo assay
[2] = Kinetic solubility of compound at pH 7; settings: buffer
[3] = Kinetic solubility of compound at pH 2; settings: buffer
[4] = target: T1, Nuclear receptor subfamily 1 group I member 2 (Homo sapiens, UniProt O75469); test: Activation of human PXR at 15 uM
T1 sequence (O75469 whole entry): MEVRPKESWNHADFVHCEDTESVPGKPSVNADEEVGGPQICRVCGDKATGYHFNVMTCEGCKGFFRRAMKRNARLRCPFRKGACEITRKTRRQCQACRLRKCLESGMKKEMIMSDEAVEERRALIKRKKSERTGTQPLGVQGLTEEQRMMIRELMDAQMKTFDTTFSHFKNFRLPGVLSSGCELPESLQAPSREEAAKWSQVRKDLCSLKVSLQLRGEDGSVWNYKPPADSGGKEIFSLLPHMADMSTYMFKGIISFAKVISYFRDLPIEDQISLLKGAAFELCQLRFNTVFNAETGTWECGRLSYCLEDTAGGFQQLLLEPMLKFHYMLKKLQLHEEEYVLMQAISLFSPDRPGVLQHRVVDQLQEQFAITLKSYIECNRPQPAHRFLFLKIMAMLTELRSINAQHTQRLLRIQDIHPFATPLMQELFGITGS

[5] = Cytotoxicity against human MT4 cells assessed as reduction in cell viability incubated for 72 hrs by celltiter glo assay; type: cell-based
U2OS [6] = test: Induction of DNA damage in human U2OS cells assessed as increase in gammaH2AX foci formation at 20 uM incubated for 72 hrs by immunostaining based confocal microscopy; type: functional, cell-based
[7] = Half life in Sprague-Dawley rat at 5 mg/kg, po or 1 mg/kg, iv; type: ADME, organism-based; settings: in vivo
[8] = target: Voltage-gated inwardly rectifying potassium channel KCNH2 (Homo sapiens, UniProt Q12809); test: Inhibition of human ERG
[9] = Permeability across apical to basolateral side in human Caco2 cells; settings: Caco-2
[10] = Oral bioavailability in Sprague-Dawley rat at 5 mg/kg; type: ADME, organism-based; settings: in vivo
[11] = Permeability across basolateral to apical side in human Caco2 cells; type: ADME, cell-based; settings: Caco-2, read-out: permeability
[12] = Clearance in Sprague-Dawley rat at 5 mg/kg, po or 1 mg/kg, iv; type: ADME, organism-based; settings: in vivo
[13] = Volume of distribution in Sprague-Dawley rat at 5 mg/kg, po or 1 mg/kg, iv; type: ADME, organism-based; settings: in vivo
[14] = target: CYP isoform (not specified) (Homo sapiens, UniProt P04798+P05177+P05181+P08684+P10632+P10635+P11509+P11712+P13584+P20813+P20815+P20853+P24462+P24903+P33260+P33261+P51589+P78329+P98187+Q02928+Q08477+Q16678+Q16696+Q5TCH4+Q6VVX0+Q7Z449+Q8TAV3+Q96SQ9+Q9HB55); test: Inhibition of CYP isoform (unknown origin); type: ADME, protein assay
[15] = target: Oxidized purine nucleoside triphosphate hydrolase (Homo sapiens) (UniProt P36639); test: Inhibition of MTH1 in human U2OS cells assessed as activation of p53 at 2.25 uM incubated for 4 and 24 hrs by Peggy sue Western blot assay; type: cell-based
[16] = Dissociation constant, pKa of the compound; type: physicochemical
[17] = Stability of compound in rat plasma assessed as half life; type: ADME, cell-free
[18] = Stability of compound in human plasma assessed as half life; type: ADME, cell-free
[19] = Chemical stability of compound at pH 6 to 9 at 40 degreeC; type: physicochemical; settings: buffer
[20] = Lipophilicity, logD of the compound at pH 7.4; type: physicochemical; settings: buffer
[21] = Glutathione reactivity of compound; type: physicochemical

Chain of Voltage-gated inwardly rectifying potassium channel KCNH2 (Q12809 whole entry): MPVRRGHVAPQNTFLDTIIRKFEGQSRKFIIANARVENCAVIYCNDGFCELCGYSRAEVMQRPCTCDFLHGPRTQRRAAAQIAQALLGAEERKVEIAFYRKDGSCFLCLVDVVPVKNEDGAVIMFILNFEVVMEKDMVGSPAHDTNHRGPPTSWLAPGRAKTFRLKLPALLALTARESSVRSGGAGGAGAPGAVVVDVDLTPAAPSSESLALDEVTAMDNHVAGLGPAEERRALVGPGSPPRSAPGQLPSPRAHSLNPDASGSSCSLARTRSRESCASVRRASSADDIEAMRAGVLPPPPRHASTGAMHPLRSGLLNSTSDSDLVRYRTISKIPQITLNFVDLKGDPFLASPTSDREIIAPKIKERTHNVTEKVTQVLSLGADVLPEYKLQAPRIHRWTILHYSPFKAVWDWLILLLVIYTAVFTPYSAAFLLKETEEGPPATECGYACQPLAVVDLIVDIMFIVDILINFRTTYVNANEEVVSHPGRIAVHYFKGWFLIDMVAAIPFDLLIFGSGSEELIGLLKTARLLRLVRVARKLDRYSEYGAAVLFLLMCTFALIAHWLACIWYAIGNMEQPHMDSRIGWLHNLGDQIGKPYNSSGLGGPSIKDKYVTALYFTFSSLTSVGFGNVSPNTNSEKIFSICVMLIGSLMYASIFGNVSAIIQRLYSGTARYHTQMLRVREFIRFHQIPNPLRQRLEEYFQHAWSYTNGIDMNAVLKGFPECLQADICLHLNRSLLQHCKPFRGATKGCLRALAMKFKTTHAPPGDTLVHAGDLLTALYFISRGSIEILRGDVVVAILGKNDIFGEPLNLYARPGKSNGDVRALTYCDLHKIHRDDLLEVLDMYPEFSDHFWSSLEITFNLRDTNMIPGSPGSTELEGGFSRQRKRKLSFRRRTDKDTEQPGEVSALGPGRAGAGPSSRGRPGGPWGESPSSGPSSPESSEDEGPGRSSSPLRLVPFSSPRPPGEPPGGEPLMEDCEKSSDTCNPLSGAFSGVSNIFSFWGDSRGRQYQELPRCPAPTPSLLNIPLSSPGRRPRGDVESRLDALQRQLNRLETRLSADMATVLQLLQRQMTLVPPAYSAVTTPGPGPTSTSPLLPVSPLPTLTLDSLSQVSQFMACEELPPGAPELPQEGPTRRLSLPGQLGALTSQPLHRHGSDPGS

SMILES: Nc1nc(NC2CC2)cc(-c2cccc(Cl)c2Cl)n1
EC50 (SW480): 9.7 µM
EC50 (U2OS [1]): 5.6 µM

SMILES: COc1ccc2nc3[nH]nc(C)c3c(NCCOCCO)c2c1
EC50 (U2OS [1]): > 20 µM

SMILES: Nc1nc2cccc(-c3cccc(Cl)c3Cl)n2n1
EC50 (U2OS [1]): 20.3 µM
solubility kinetic [2]: 74 µM (≈ 20.7 µg/mL)
solubility kinetic [3]: 93 µM (≈ 26 µg/mL)
Activity [4]: Not Active
CC50 at 72 h [5]: > 50 µM
Activity (U2OS [6]): inactive
half-life [7]: 3.2 h
IC50 [8]: > 25 µM
Papp A→B [9]: 41 ×10⁻⁶ cm/s
bioavailability [10]: 86%
Papp B→A [11]: 34 ×10⁻⁶ cm/s
clearance [12]: 12.2 mL/min/kg
Vd [13]: 2.7 L/kg
IC50 [14]: > 25 µM

inhibition [15]: Active
SMILES: O=C1c2c(O)ccc(O)c2C(=O)c2c(NCCNCCO)ccc(NCCNCCO)c21

SMILES: Nc1nc2c(-c3cccc(Cl)c3Cl)cccc2[nH]1
EC50 (U2OS [1]): 14.4 µM

SMILES: CC(=O)Nc1cc2c(c(-c3cccc(C)c3C)n1)CCCN2
pKa [16]: 7.5
half-life [17]: 7.43 h
EC50 (U2OS [1]): 8.05 µM
solubility kinetic [2]: 70 µM (≈ 20.7 µg/mL)
solubility kinetic [3]: 97 µM (≈ 28.7 µg/mL)
CC50 at 72 h [5]: 19 µM
Activity (U2OS [6]): inactive
half-life [18]: 4.2 h
Stability [19]: Stable
Papp A→B [9]: 35 ×10⁻⁶ cm/s
logD [20]: 2.5
Papp B→A [11]: 32 ×10⁻⁶ cm/s
Activity [21]: Not Active

SMILES: CNc1cc(N(C)[C@@H](C)c2ccccc2)nc(N)n1
EC50 (U2OS [1]): 24.9 µM

SMILES: C[C@H](Oc1cc(-c2cnn(C3CCNCC3)c2)cnc1N)c1c(Cl)ccc(F)c1Cl
EC50 (U2OS [1]): 6.8 µM

SMILES: CNc1cc(N2CCCCC2)nc(N)n1
Activity (U2OS [6]): inactive

pKa [16]: 3.5
Papp A→B [9]: 37 ×10⁻⁶ cm/s
Papp B→A [11]: 45 ×10⁻⁶ cm/s
SMILES: CC(=O)Nc1cc2ncccc2c(-c2cccc(C)c2C)n1

SMILES: CNc1cc(-c2cccc(Cl)c2Cl)nc(N)n1
EC50 (SW480): 3 µM
EC50 (U2OS [1]): 0.7 to 1.8 µM
CC50 at 72 h [5]: 0.726 µM
Activity (U2OS [6]): Active
Activity [15]: Active
